Assays:
[1] = target: EGFR (Homo sapiens, UniProt P00533, L858R/T790M); assay: luminescence kinase assay (Kinase-Glo Max, BPS Bioscience EGFR (T790M/L858R) kit, […] ATP); format: biochemical
[2] = target: T1, HER2 (Homo sapiens, UniProt P04626); assay: luminescence kinase assay (Kinase-Glo Max, BPS Bioscience HER2 kit, […] ATP); format: biochemical
T1 construct: gene ERBB2
T1 sequence (P04626 23-1255): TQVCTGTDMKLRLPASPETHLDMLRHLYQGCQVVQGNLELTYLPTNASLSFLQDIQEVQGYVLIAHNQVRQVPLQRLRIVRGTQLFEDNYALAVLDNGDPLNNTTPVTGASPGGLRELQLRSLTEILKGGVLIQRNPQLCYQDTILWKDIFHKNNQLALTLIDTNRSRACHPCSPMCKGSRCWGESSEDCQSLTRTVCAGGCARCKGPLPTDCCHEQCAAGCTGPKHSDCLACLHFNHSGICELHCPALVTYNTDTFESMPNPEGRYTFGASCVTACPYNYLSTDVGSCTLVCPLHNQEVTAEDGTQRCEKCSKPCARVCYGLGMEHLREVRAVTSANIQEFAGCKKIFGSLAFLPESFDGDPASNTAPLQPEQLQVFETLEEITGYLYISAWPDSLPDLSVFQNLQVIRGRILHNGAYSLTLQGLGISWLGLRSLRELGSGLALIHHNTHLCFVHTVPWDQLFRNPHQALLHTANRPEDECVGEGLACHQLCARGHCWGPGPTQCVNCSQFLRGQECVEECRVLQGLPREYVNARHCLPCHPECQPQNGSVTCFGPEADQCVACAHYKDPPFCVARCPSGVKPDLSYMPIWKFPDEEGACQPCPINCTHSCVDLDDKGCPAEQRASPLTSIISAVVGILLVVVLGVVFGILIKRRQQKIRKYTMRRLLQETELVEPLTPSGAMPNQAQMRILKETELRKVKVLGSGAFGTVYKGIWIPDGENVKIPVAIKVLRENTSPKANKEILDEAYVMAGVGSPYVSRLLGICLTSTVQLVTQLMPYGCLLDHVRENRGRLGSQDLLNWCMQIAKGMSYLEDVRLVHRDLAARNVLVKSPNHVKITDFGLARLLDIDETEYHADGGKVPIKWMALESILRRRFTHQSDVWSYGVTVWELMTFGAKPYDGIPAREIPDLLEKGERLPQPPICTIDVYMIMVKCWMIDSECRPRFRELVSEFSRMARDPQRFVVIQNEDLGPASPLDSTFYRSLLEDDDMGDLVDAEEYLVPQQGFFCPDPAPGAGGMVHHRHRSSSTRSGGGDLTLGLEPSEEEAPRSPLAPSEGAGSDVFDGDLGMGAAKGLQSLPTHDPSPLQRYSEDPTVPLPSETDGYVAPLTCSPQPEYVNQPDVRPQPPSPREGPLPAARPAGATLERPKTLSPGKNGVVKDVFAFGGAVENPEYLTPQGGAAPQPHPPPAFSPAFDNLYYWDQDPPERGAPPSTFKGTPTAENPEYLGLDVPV

Chain of EGFR (P00533 696-1210 T790M/L858R limits assumed): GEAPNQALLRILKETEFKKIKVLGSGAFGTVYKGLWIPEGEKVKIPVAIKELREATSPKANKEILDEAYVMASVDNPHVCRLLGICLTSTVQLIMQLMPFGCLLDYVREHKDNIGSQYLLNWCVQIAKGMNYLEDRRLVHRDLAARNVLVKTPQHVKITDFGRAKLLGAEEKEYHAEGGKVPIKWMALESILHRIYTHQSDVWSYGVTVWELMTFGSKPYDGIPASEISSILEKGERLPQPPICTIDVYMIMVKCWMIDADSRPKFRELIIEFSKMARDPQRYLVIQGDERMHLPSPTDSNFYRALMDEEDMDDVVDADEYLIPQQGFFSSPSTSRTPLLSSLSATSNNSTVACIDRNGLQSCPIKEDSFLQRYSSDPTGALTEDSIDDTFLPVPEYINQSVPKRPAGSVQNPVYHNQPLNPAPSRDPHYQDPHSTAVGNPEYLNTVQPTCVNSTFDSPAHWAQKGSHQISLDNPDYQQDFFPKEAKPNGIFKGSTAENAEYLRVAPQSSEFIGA

Molecule `O=C1c2ccc(-c3nc4ccccc4c(=O)o3)cc2C(=O)N1c1cccc(-c2nc3ccccc3c(=O)o2)c1` [C3, 5-(4-oxo-4H-3,1-benzoxazin-2-yl)-2-[3-(4-oxo-4H-3,1-benzoxazin-2-yl)phenyl]-1H-isoindole-1,3(2H)-dione] has an IC50 [1] of 37.2 nM and an IC50 [2] of 45.8 nM.
